Results published in EP3074389B1, “QUINOLINE DERIVATIVES AS BROMODOMAIN INHIBITORS” (Gilead Sciences, Inc., priority 2013, dated 2015).

What was measured:
BRD4 domain 2 = BRD4 domain 2 (Homo sapiens, UniProt O60885); test: Kd determination of inhibitors binding to BRD4 domain 2 (Epic label-free platform); details: direct binding to immobilized BRD4 domain 2; tripling dilution series from 20µM; about 1hr equilibrium; rounded to whole number
Method: (§1) Kd Determination of Inhibitors Binding to BRD4 Domain 1 and Domain 2
(§2) The binding of small molecule inhibitors to either BRD4 domain 1 or domain 2 were determined using the Epic, high-throughput, label-free platform (Corning, Lowell, MA). The Epic instrument incorporates an evanescent waveguide sensor within each well of its proprietary 384-well microplates. Direct binding of inhibitors to BRD4 immobilized onto the microplate well surface can be detected by exposing the waveguide to a broadband light source. The resulting resonant wavelength shift (measured in picometers (pm)) is proportional to the mass bound to the surface. Epic biochemical plates (Corning, Lowell, MA) were activated by adding 15 µL/well of 200 mM EDC and 50 mM Sulfo-NHS (Pierce Thermo Scientific, Rockford, IL) and incubated for 60 minutes at room temperature. Plates were washed three times with MilliQ water and dried by centrifugation (1 minute at 400 rpm). BRD4 immobilization was accomplished by resuspending the protein at a concentration of 150 µg/mL in 20 mM HEPES (pH 7) and adding 10 µL/well. […] Compound/inhibitor binding was determined by calculating difference between the baseline (first read) and second read. The resulting binding response was fitted to a single site binding isotherm in order to determine an equilibrium dissociation constant (Kd).

BRD4 domain 1 = BRD4 domain 1 (Homo sapiens, UniProt O60885); test: Kd determination of inhibitors binding to BRD4 domain 1 (Epic label-free platform); details: direct binding to immobilized BRD4 domain 1; tripling dilution series from 20µM; about 1hr equilibrium; rounded to whole number; read-out: Epic Kd BRD41
Method: as §1, §2

Row | SMILES | Kd (BRD4 domain 2) | Kd (BRD4 domain 1)
1 | Cc1noc(C)c1-c1cc(S(=O)(=O)N[C@@H]2CCC[C@H]2C(=O)NC2CCCC2)c2cccnc2c1 [Compound 35, (1R,2R)-N-cyclopentyl-2-(7-(3,5-dimethylisoxazol-4-yl)quinoline-5-sulfonamido)cyclopen tanecarboxamide] | 19.7 µM | > 20 µM
2 | Cc1noc(C)c1-c1cc(S(=O)(=O)NC2CCCC2)c2cc(-c3ccccn3)c(=O)[nH]c2c1 [Compound 36, N-cyclopentyl-7-(3,5-dimethylisoxazol-4-yl)-2-oxo-3-(pyridin-2-yl)-1,2-dihydroquinoline-5-sulfonamide] | 0.718 µM | 1.45 µM
3 | Cc1noc(C)c1-c1cc(S(=O)(=O)NC2CCCC2)c2cc(-c3ncccn3)c(=O)[nH]c2c1 [Compound 37, N-cyclopentyl-7-(3,5-dimethylisoxazol-4-yl)-2-oxo-3-(pyrimidin-2-yl)-1,2-dihydroquinoline-5-sulfonamide] | 0.757 µM | 2.09 µM
4 | Cc1noc(C)c1-c1cc(S(=O)(=O)N[C@H]2C[C@@H]3CC[C@H]2C3)c2cccnc2c1 [Compound 38, N-((1S,2S,4R)-bicyclo[2.2.1]heptan-2-yl)-7-(3,5-dimethylisoxazol-4-yl)quinoline-5-sulfonamide] | 3.49 µM | 3.14 µM
5 | Cc1noc(C)c1-c1cc(S(=O)(=O)NC2CCC(C)(C)C2)c2cccnc2c1 (stereo not drawn) [Compound 39, N-(3,3-dimethylcyclopentyl)-7-(3,5-dimethylisoxazol-4-yl)quinoline-5-sulfonamide] | 13.4 µM | 5.56 µM
6 | Cc1noc(C)c1-c1cc(S(=O)(=O)NC2CC3CCC(C2)N3C)c2cccnc2c1 (stereo not drawn) [Compound 40, 7-(3,5-dimethylisoxazol-4-yl)-N-(8-methyl-8-azabicyclo[3.2.1]octan-3-yl)quinoline-5-sulfonamide] | > 20 µM | 16 µM
7 | Cc1noc(C)c1-c1cc(S(=O)(=O)NC2CCCC2)c2cc(N)c(=O)[nH]c2c1 [Compound 41, 3-amino-N-cyclopentyl-7-(3,5-dimethylisoxazol-4-yl)-2-oxo-1,2-dihydroquinoline-5-sulfonamide] | 0.45 µM | 0.4 µM
8 | Cc1noc(C)c1-c1cc(S(=O)(=O)N[C@@H]2CCC[C@H]2C(=O)NCc2nccn2C)c2cccnc2c1 [Compound 42, (1R,2R)-2-(7-(3,5-dimethylisoxazol-4-yl)quinoline-5-sulfonamido)-N-((1-methyl-1H-imidazol-2-yl)methyl)cyclopentan ecarboxamide] | 6.84 µM | 16.2 µM
9 | Cc1noc(C)c1-c1cc(S(=O)(=O)N[C@@H]2CCC[C@@H]2C(=O)NCc2nccn2C)c2cccnc2c1 [Compound 43, (1S,2R)-2-(7-(3,5-dimethylisoxazol-4-yl)quinoline-5-sulfonamido)-N-((1-methyl-1H-imidazol-2-yl)methyl)cyclopentan ecarboxamide] | 10.7 µM | > 20 µM
10 | Cc1noc(C)c1-c1cc(S(=O)(=O)NC2CCCC2)c2ccc(N3CCNCC3)nc2c1 [Compound 44, N-cyclopentyl-7-(3,5-dimethylisoxazol-4-yl)-2-(piperazin-1-yl)quinoline-5-sulfonamide] | 0.504 µM | 0.799 µM
11 | Cc1noc(C)c1-c1cc(S(=O)(=O)N[C@@H]2CCC[C@H]2NC(=O)OC(C)(C)C)c2cccnc2c1 [Compound 45, tert-butyl ((1R,2R)-2-(7-(3,5-dimethylisoxazol-4-yl)quinoline-5-sulfonamido)cyclopentyl)carbamate] | > 20 µM | 14.6 µM
12 | Cc1noc(C)c1-c1cc(S(=O)(=O)N[C@@H]2CCC[C@H]2C(=O)N2CCNCC2)c2cccnc2c1 [Compound 47, 7-(3,5-dimethylisoxazol-4-yl)-N-((1R,2R)-2-(piperazine-1-carbonyl)cyclopentyl) quinoline-5-sulfonamide] | 2.27 µM | 3.16 µM
13 | Cc1noc(C)c1-c1cc(S(=O)(=O)NCCc2ccccc2)c2ccc(=O)[nH]c2c1 [Compound 48, 7-(3,5-dimethylisoxazol-4-yl)-2-oxo-N-phenethyl-1,2-dihydroquinoline-5-sulfonamide] | 20 µM | > 20 µM
14 | Cc1noc(C)c1-c1cc(S(=O)(=O)NC2(C#N)CC2)c2cccnc2c1 [Compound 49, N-(1-cyanocyclopropyl)-7-(3,5-dimethylisoxazol-4-yl)quinoline-5-sulfonamide] | 18.8 µM | > 20 µM
15 | Cc1noc(C)c1-c1cc(S(=O)(=O)N[C@@H]2CCC[C@@H]2C(=O)N2CCNCC2)c2cccnc2c1 [Compound 50, 7-(3,5-dimethylisoxazol-4-yl)-N-((1R,2S)-2-(piperazine-1-carbonyl)cyclopentyl) quinoline-5-sulfonamide] | 8.13 µM | 7.17 µM
16 | CC(=O)N[C@H]1CCC[C@H]1NS(=O)(=O)c1cc(-c2c(C)noc2C)cc2ncccc12 [Compound 51, N-((1S,2R)-2-(7-(3,5-dimethylisoxazol-4-yl)quinoline-5-sulfonamido)cyclopentyl)acetamide] | 6.45 µM | 7.62 µM
17 | Cc1noc(C)c1-c1cc(S(=O)(=O)NC2(C#N)CCCC2)c2cccnc2c1 [Compound 52, N-(1-cyanocyclopentyl)-7-(3,5-dimethylisoxazol-4-yl)quinoline-5-sulfonamide] | 11.7 µM | > 20 µM
18 | CCN[C@H]1CCC[C@H]1NS(=O)(=O)c1cc(-c2c(C)noc2C)cc2ncccc12 [Compound 53, 7-(3,5-dimethylisoxazol-4-yl)-N-((1R,2S)-2-(ethylamino)cyclopentyl)quinoline-5-sulfonamide] | 8.64 µM | > 20 µM
19 | CCOC(=O)N[C@H]1CCC[C@H]1NS(=O)(=O)c1cc(-c2c(C)noc2C)cc2ncccc12 [Compound 54, ethyl ((1S,2R)-2-(7-(3,5-ditnethylisoxazol-4-yl)quinoline-5-sulfonamido)cyclopentyl)carbamate] | 7.99 µM | 5.87 µM
20 | Cc1noc(C)c1-c1cc(S(=O)(=O)NC2CCCC2)c2cc(N3CCOCC3)c(=O)[nH]c2c1 [Compound 55, N-cyclopentyl-7-(3,5-dimethylisoxazol-4-yl)-3-morpholino-2-oxo-1,2-dihydroquinoline-5-sulfonamide] | 0.726 µM | 1.34 µM
21 | Cc1noc(C)c1-c1cc(S(=O)(=O)NC2CCCC2)c2cc(N3CCNCC3)c(=O)[nH]c2c1 [Compound 56, N-cyclopentyl-7-(3,5-dimethylisoxazol-4-yl)-2-oxo-3-(piperazin-1-yl)-1,2-dihydroquinoline-5-sulfonamide] | 0.611 µM | 0.933 µM
22 | Cc1noc(C)c1-c1cc(S(=O)(=O)NC2CCCC2)c2cc(NCCO)c(=O)[nH]c2c1 [Compound 57, N-cyclopentyl-7-(3,5-dimethylisoxazol-4-yl)-3-((2-hydroxyethyl)amino)-2-oxo-1,2-dihydroquinoline-5-sulfonamide] | 0.477 µM | 0.444 µM
23 | COCCNc1cc2c(S(=O)(=O)NC3CCCC3)cc(-c3c(C)noc3C)cc2[nH]c1=O [Compound 58, N-cyclopentyl-7-(3,5-dimethylisoxazol-4-yl)-3-((2-methoxyethyl)amino)-2-oxo-1,2-dihydroquinoline-5-sulfonamide] | 0.32 µM | 0.313 µM
24 | Cc1noc(C)c1-c1cc(S(=O)(=O)NC2CCCC2)c2cc(N3CCCCC3)c(=O)[nH]c2c1 [Compound 60, N-cyclopentyl-7-(3,5-dimethylisoxazol-4-yl)-2-oxo-3-(piperidin-1-yl)-1,2-dihydroquinoline-5-sulfonamide] | 1.9 µM | 2.23 µM
